These results are taken from EP4032530B1, “PROLONGED-RELEASE FURAZIDIN COMPOSITION” (Adamed Pharma S.A., priority 2021, dated 2022).

For series [1] the following is noted: upon oral administration; cited from earlier work.
The subject of the next series is Escherichia coli. The conditions noted are these: constant level, unchanged for several decades; cited from earlier work.
The nature of series [2]: Phase I pivotal food effect pharmacokinetic study FUR-PK-03-19 (755/19). In kind it is in vivo, human. The following applies: PK phase I studies. As for the experimental part: Study title: Randomized, open-label, three-period, cross-over, food effect pharmacokinetic study comparing bioavailability of furazidin, prolonged-release tablets, 200 mg having a composition of IR/1+MR/1 according to Example 1 in healthy subjects in different fed conditions.
Aim of the study: The main study objective was to evaluate the pharmacokinetic properties and to compare the bioavailability of the Test product in healthy volunteers under different fed conditions.
Study conduct: In this bioavailability study, the pharmacokinetic profile was tested for the Test formulation (prolonged-release bilayer tablet, IR/1+MR/1) having a strength of 200 mg furazidin. The bioavailability study was carried out under different fed conditions (after a high-protein meal or after a high-fat, high-calorie meal) and in fasting state in 30 healthy subjects. On the day of dosing, the subjects received randomly after an overnight fast a single dose of the modified-release formulation, administered on empty stomach (fasting conditions, Treatment A) or after a high-protein meal (Treatment B) or after a high-fat, high-calorie meal (Treatment C), each time with 240 mL of water. For each subject, there were 3 dosing periods, separated by a washout period of 7 days. […]
The pharmacokinetic data for plasma and urine were statistically analysed in 29 subjects. […]

On to `O=C1CN(/N=C/C=C/c2ccc([N+](=O)[O-])o2)C(=O)N1` [furazidin], for which the half-life entry in series [1] is given as “below 1 hour”. Moreover, the “susceptibility of Escherichia coli to furazidin” value in the series with Escherichia coli is “approx. 90%”. Further, in series [2], the site of absorption entry is “mainly absorbed in the upper part of the small intestine”.
